Like-named read-outs stand apart in the source and are kept apart here.
Tests used:
[1] = system: Key Grass and Sedge Weeds as well as Grass Crops; test: Post-emergent Test II herbicidal activity (Table 6); type: in vivo; settings: post-emergence, 336 h; for pest or weed control at 70 g/ha: application rate 70 g ai/ha; for pest or weed control at 140 g/ha: application rate 140 g ai/ha
Method: (§1) Post-emergent Test II: Seeds or nutlets of the desired test plant species were planted in Sun Gro Metro-Mix® 360 planting mixture, which typically has a pH of 6.0 to 6.8 and an organic matter content of about 30 percent, in plastic pots with a surface area of 64 square centimeters. When required to ensure good germination and healthy plants, a fungicide treatment and/or other chemical or physical treatment was applied. The plants were grown for 7-21 d in a greenhouse with an approximate 15 h photoperiod which was maintained at about 23-29° C. during the day and 22-28° C. during the night. Nutrients and water were added on a regular basis and supplemental lighting was provided with overhead metal halide 1000-Watt lamps as necessary. The plants were employed for testing when they reached the first or second true leaf stage.
(§2) A weighed amount, determined by the highest rate to be tested, of each test compound was placed in a 25 mL glass vial and was dissolved in 4 mL of a 97:3 v/v mixture of acetone and DMSO to obtain concentrated stock solutions. […] The concentrated stock solutions obtained were diluted with 20 mL of an aqueous mixture containing acetone, water, isopropyl alcohol, DMSO. Atplus 411F crop oil concentrate, and Triton® X-155 surfactant in a 48.5:39:10:1.5:1.0:0.02 v/v ratio to obtain spray solutions containing the highest application rates. Additional application rates were obtained by serial dilution of 12 mL of the high rate solution into a solution containing 2 mL of 97:3 v/v mixture of acetone and DMSO and 10 mL of an aqueous mixture containing acetone, water, isopropyl alcohol, DMSO, Atplus 411F crop oil concentrate, and Triton X-155 surfactant in a 48.5:39:10:1.5:1.0:0.02 v/v ratio to obtain ½×, ¼×, ⅛× and 1/16× rates of the high rate. Compound requirements are based upon a 12 mL application volume at a rate of 187 liters per hectare (L/ha). Formulated compounds were applied to the plant material with an overhead Mandel track sprayer equipped with 8002E nozzles calibrated to deliver 187 L/ha over an application area of 0.503 square meters at a spray height of 18 inches (43 cm) above the average plant canopy height. Control plants were sprayed in the same manner with the solvent blank.
(§3) The treated plants and control plants were placed in a greenhouse as described above and watered by subirrigation to prevent wash-off of the test compounds. After 14 d, the condition of the test plants as compared with that of the untreated plants was determined visually and scored on a scale of 0 to 100 percent where 0 corresponds to no injury and 100 corresponds to complete kill.

[2] = system: Key Broadleaf Weed and Crop Species; test: Post-emergent Test II herbicidal activity (Table 5); type: in vivo; settings: post-emergence, 336 h, 14 days after application; for pest or weed control at 70 g/ha: application rate 70 g ai/ha
Method: as §1, §2, §3

[3] = Triticum aestivum, TRZSS (wheat), read-out: Visual Growth Reduction (%) 14 Days After Application, TRZSS
[4] = DIGSA: crabgrass (Digitaria sanguinalis), read-out: Visual Growth Reduction (%) 14 Days After Application, DIGSA
[5] = ECHCG: barnyardgrass (Echinochloa crus-galli), read-out: Visual Growth Reduction (%) 14 Days After Application, ECHCG
[6] = ORYSA: rice (Oryza sativa), read-out: Visual Growth Reduction (%) 14 Days After Application, ORYSA
[7] = SETFA: giant foxtail (Setaria faberi), read-out: Visual Growth Reduction (%) 14 Days After Application, SETFA
[8] = SORVU: grain sorghum (Sorghum vulgare), read-out: Visual Growth Reduction (%) 14 Days After Application, SORVU
[9] = ZEAMX: maize, corn (Zea mays), read-out: Visual Growth Reduction (%) 14 Days After Application, ZEAMX
[10] = ABUTH: velvetleaf (Abutilon theophrasti), read-out: Visual Growth Reduction (%) 14 Days After Application, ABUTH
[11] = AMARE: redroot pigweed (Amaranthus retroflexus), read-out: Visual Growth Reduction (%) 14 Days After Application, AMARE
[12] = BRSNN: oilseed-rape, canola (Brassica napus), read-out: Visual Growth Reduction (%) 14 Days After Application, BRSNN
[13] = CHEAL: lambsquarters (Chenopodium album), read-out: Visual Growth Reduction (%) 14 Days After Application, CHEAL
[14] = EPHHL: wild poinsettia (Euphorbia heterophylla), read-out: Visual Growth Reduction (%) 14 Days After Application, EPHHL
[15] = HELAN: sunflower (Helianthus annuus), read-out: Visual Growth Reduction (%) 14 Days After Application, HELAN
[16] = VIOTR: wild pansy (Viola tricolor), read-out: Visual Growth Reduction (%) 14 Days After Application, VIOTR

COC(=O)c1nc(-c2ccc(C(F)(F)F)c(F)c2)nc(N)c1OC [Compound 26, methyl 6-amino-2-(3-fluoro-4-(trifluoromethyl)phenyl)-5-methoxypyrimidine-4-carboxylate]
75 to 84%: pest or weed control at 140 g/ha ([2]; AMARE: redroot pigweed (Amaranthus retroflexus), application rate 140 g ai/ha, read-out: Visual Growth Reduction (%) 14 Days After Application, AMARE)
85 to 94%: pest or weed control at 70 g/ha [2, 10] | pest or weed control at 140 g/ha ([2]; ABUTH: velvetleaf (Abutilon theophrasti), application rate 140 g ai/ha, read-out: Visual Growth Reduction (%) 14 Days After Application, ABUTH) | pest or weed control at 70 g/ha [2, 15] | pest or weed control at 140 g/ha ([2]; HELAN: sunflower (Helianthus annuus), application rate 140 g ai/ha, read-out: Visual Growth Reduction (%) 14 Days After Application, HELAN)
95 to 100%: pest or weed control at 70 g/ha [2, 14] | pest or weed control at 140 g/ha ([2]; EPHHL: wild poinsettia (Euphorbia heterophylla), application rate 140 g ai/ha, read-out: Visual Growth Reduction (%) 14 Days After Application, EPHHL)
45 to 59%: pest or weed control at 70 g/ha [1, 3] | pest or weed control at 140 g/ha [1, 3] | pest or weed control at 140 g/ha [1, 9]
0 to 29%: pest or weed control at 70 g/ha [1, 4] | pest or weed control at 140 g/ha [1, 4] | pest or weed control at 70 g/ha [1, 5] | pest or weed control at 140 g/ha [1, 5] | pest or weed control at 70 g/ha [1, 6] | pest or weed control at 140 g/ha [1, 6] | pest or weed control at 70 g/ha [1, 7] | pest or weed control at 140 g/ha [1, 7] | pest or weed control at 70 g/ha [1, 8] | pest or weed control at 140 g/ha [1, 8] | pest or weed control at 70 g/ha [1, 9] | pest or weed control at 70 g/ha [2, 13] | pest or weed control at 140 g/ha ([2]; CHEAL: lambsquarters (Chenopodium album), application rate 140 g ai/ha, read-out: Visual Growth Reduction (%) 14 Days After Application, CHEAL) | pest or weed control at 70 g/ha [2, 16] | pest or weed control at 140 g/ha ([2]; VIOTR: wild pansy (Viola tricolor), application rate 140 g ai/ha, read-out: Visual Growth Reduction (%) 14 Days After Application, VIOTR)
60 to 74%: pest or weed control at 70 g/ha [2, 11]
30 to 44%: pest or weed control at 70 g/ha [2, 12] | pest or weed control at 140 g/ha ([2]; BRSNN: oilseed-rape, canola (Brassica napus), application rate 140 g ai/ha, read-out: Visual Growth Reduction (%) 14 Days After Application, BRSNN)

COc1c(N)nc(-c2ccc(C(F)(F)F)c(F)c2)nc1C(=O)O [Compound 63]
75 to 84%: pest or weed control at 70 g/ha [1, 5] | pest or weed control at 140 g/ha ([2]; AMARE: redroot pigweed (Amaranthus retroflexus), 140 g ai/ha, post-emergent, read-out: Visual Growth Reduction (%) 14 Days After Application AMARE) | pest or weed control at 70 g/ha [2, 12] | pest or weed control at 70 g/ha [2, 16]
85 to 94%: pest or weed control at 140 g/ha ([2]; ABUTH: velvetleaf (Abutilon theophrasti), 140 g ai/ha, post-emergent, read-out: Visual Growth Reduction (%) 14 Days After Application ABUTH) | pest or weed control at 140 g/ha ([2]; BRSNN: oilseed-rape, canola (Brassica napus), 140 g ai/ha, post-emergent, read-out: Visual Growth Reduction (%) 14 Days After Application BRSNN) | pest or weed control at 70 g/ha [2, 13] | pest or weed control at 140 g/ha ([2]; HELAN: sunflower (Helianthus annuus), 140 g ai/ha, post-emergent, read-out: Visual Growth Reduction (%) 14 Days After Application HELAN) | pest or weed control at 70 g/ha [2, 15]
60 to 74%: pest or weed control at 70 g/ha [1, 3] | pest or weed control at 140 g/ha [1, 3] | pest or weed control at 70 g/ha [1, 4] | pest or weed control at 140 g/ha [1, 4] | pest or weed control at 70 g/ha [1, 9] | pest or weed control at 140 g/ha [1, 9] | pest or weed control at 70 g/ha [2, 10] | pest or weed control at 70 g/ha [2, 11]
95 to 100%: pest or weed control at 140 g/ha [1, 5] | pest or weed control at 140 g/ha [1, 7] | pest or weed control at 140 g/ha ([2]; CHEAL: lambsquarters (Chenopodium album), 140 g ai/ha, post-emergent, read-out: Visual Growth Reduction (%) 14 Days After Application CHEAL) | pest or weed control at 140 g/ha ([2]; EPHHL: wild poinsettia (Euphorbia heterophylla), 140 g ai/ha, post-emergent, read-out: Visual Growth Reduction (%) 14 Days After Application EPHHL) | pest or weed control at 70 g/ha [2, 14] | pest or weed control at 140 g/ha ([2]; VIOTR: wild pansy (Viola tricolor), 140 g ai/ha, post-emergent, read-out: Visual Growth Reduction (%) 14 Days After Application VIOTR)
30 to 44%: pest or weed control at 140 g/ha [1, 8]
0 to 29%: pest or weed control at 70 g/ha [1, 6] | pest or weed control at 140 g/ha [1, 6] | pest or weed control at 70 g/ha [1, 8]
